In patent EP1068184B1, “N-ARYLOXYETHYLAMINE DERIVATIVES FOR THE TREATMENT OF DEPRESSION” (Wyeth, priority 1998, dated 1999):
Like-named read-outs stand apart in the source and are kept apart here.

Experiments:
[1] = target: T1, human 5-HT1A receptor subtype (Homo sapiens, UniProt P08908); assay: 5-HT1A receptor binding assay with [3H]8-OH-DPAT on membranes of 5-HT1A.CHO cells; details: for Ki: [3H]8-OH-DPAT 1.5 nM, CHO cell membranes; for 5-HT1A (% @1000nM) / 5-HT1A (% @10nM): given instead of a Ki
T1 construct: expressed in transfected cells
T1 sequence (P08908 1-422): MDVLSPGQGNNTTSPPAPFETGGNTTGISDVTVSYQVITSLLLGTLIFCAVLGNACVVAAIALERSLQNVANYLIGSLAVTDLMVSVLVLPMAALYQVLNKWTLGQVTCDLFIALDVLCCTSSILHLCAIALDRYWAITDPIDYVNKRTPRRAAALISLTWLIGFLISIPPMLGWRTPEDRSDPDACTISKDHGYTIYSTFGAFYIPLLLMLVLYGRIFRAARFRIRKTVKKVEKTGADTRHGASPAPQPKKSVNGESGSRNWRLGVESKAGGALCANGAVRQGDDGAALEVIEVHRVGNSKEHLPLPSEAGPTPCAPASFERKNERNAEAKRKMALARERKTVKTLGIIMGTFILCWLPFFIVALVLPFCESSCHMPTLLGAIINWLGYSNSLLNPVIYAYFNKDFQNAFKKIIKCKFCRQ
Procedure: (§1) The PCR cloning of the human 5-HT1A receptor subtype from a human genomic library has been described previously Chanda et al., Mol. Pharmacol., 43:516 (1993). A stable Chinese hamster ovary cell line expressing the human 5-HT1A receptor subtype (5-HT1A.CHO cells) was employed throughout this study. Cells were maintained in DMEM supplemented with 10% foetal calf serum, non-essential amino acids and penicillin/ streptomycin.
Cells were grown to 95-100% confluency as a monolayer before membranes were harvested for binding studies. Cells were gently scraped from the culture plates, transferred to centrifuge tubes, and washed twice by centrifugation (2000 rpm for 10 min., 4°C) in buffer (50 mM Tris; pH 7.5). The resulting pellets were aliquoted and placed at -80°C. On the day of assay, the cells were thawed on ice, and resuspended in buffer. Studies were conducted using [^3H]8-OH-DPAT as the radioligand. The binding assay was performed in 96 well microtiter plates in a final total volume of 250 µL of buffer. Competition experiments were performed by using 7 concentrations of unlabelled drug and a final ligand concentration of 1.5 nM . Non-specific binding was determined in the presence of 10 µM 5HT. Saturation analysis was conducted by using [^3H]8-OH-DPAT at concentrations ranging from 0.3-30 nM. Following a 30 minute incubation at room temperature, the reaction was terminated by the addition of ice cold buffer and rapid filtration using a M-96 Brandel Cell Harvester (Gaithersburg, MD) through a GF/B filter presoaked for 30 minutes in 0.5% polyethyleneimine.

5-HT1A cloned receptor = target: T2, 5-HT1A cloned receptor (Homo sapiens, UniProt P08908); assay: [35S]-GTPγS binding assay on 5-HT1A cloned receptor membrane fragments; type: biochemical; details: maximum agonist response defined by excess 8-OH-DPAT
T2 construct: expressed in transfected cells
T2 sequence (P08908 1-422): T1 sequence (P08908 1-422)
Procedure: The [^35S]-GTPγS binding assay was similar to that used by Lazareno and Birdsall, Br. J. Pharmacol. 109:1120 (1993). Briefly, 5-HT1A cloned receptor membrane fragments (as used for 5-HT1A receptor binding assays) were stored at -70 °C until needed. When needed, membranes were rapidly thawed, centrifuged at 40,000 x g for 10 minutes and resuspended at 4 °C for 10 minutes in assay buffer (25 mM HEPES, 3 mM MgCl2, 100 mM NaCI, 1 mM EDTA, 10 uM GDP, […] DTT, pH 8.0). These membranes were then incubated for 30 min at 30 °C with [^35S]GTPgS (1 nM) in the presence of vehicle, test compound (one to eight concentrations), or excess 8-OH-DPAT to define maximum agonist response. All reactions are terminated by the addition of ice cold Tris buffer followed by rapid filtration using a Tom Tech® filtration device to separate bound from free [^35S]GTPgS. Agonists produce an increase in the amount of [^35S]GTPgS bound whereas antagonists produce no increase in binding. Bound radioactivity was counted and analyzed as above.

serotonin transporter = target: T3, serotonin transporter (Rattus norvegicus, UniProt P31652); assay: serotonin transporter affinity, 3H-paroxetine binding to frontal cortical membranes; set-up: species or system male Sprague-Dawley rats
T3 construct: frontal cortical membranes prepared from male Sprague-Dawley rats; from tissue; host or cells: rat frontal cortex membranes
T3 sequence (P31652 whole entry): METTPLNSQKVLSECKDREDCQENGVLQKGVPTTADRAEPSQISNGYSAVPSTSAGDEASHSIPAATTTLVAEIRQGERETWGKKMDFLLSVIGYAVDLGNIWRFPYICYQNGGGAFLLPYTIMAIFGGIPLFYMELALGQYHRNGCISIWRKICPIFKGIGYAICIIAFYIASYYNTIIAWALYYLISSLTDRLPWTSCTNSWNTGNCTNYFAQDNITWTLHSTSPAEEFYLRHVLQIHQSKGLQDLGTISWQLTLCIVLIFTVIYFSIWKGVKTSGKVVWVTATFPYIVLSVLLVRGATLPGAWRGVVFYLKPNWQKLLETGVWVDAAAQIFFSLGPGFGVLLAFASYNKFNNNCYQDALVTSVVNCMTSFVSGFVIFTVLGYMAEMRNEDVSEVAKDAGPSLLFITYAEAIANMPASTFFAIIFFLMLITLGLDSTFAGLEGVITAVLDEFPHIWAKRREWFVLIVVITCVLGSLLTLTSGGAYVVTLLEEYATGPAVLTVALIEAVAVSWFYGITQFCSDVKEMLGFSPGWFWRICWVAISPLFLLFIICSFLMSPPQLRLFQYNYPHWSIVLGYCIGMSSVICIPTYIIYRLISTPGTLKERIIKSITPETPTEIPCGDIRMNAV
Procedure: Briefly, frontal cortical membranes prepared from male Sprague-Dawley rats were incubated with ^3H-paroxetine (0.1 nM) for 60 min at 25°C. All tubes also contained either vehicle, test compound (one to eight concentrations), or a saturating concentration of fluoxetine (10 µM) to define specific binding. All reactions are terminated by the addition of ice cold Tris buffer followed by rapid filtration using a Tom Tech filtration device to separate bound from free ^3H-paroxetine.

[2] = target: T1, human 5-HT1A receptor subtype; assay: cAMP formation in forskolin-treated cells (cAMP SPA assay); type: cell-based; details: forskolin 1 uM, 10 min at 37°C
Procedure: as §1
The following assays were performed by incubating the cells with DMEM containing 25 mM HEPES, 5 mM theophylline and 10 µM pargyline for a period of 20 minutes at 37°C. Functional activity was assessed by treating the cells with forskolin (1 uM final concentration) followed immediately by test compound (6 concentrations) for an additional 10 min at 37°C. In separate experiments, 6 concentrations of antagonist were preincubated for 20 min prior to the addition of 10 nM 8-OH-DPAT and forskolin. The reaction was terminated by removal of the media and addition of 0.5 ml ice cold assay buffer. Plates were stored at -20°C prior to assessment of cAMP formation by a cAMP SPA assay (Amersham).

[3] = 3H-paroxetine 0.1 nM, rat frontal cortical membranes, read-out: ST (Ki)

Fc1ccc2c(c1)[nH]cc2[C@H]1CC[C@H](NCCOc2cccc3c2OCCO3)CC1 [Example 4d]
Ki [1]: 16.7 nM
Emax (5-HT1A cloned receptor): 74.8%
Ki (serotonin transporter; [3]): 0.21 nM

OC1(CNCCOc2cccc3[nH]ccc23)CCC(c2c[nH]c3ccc(F)cc23)CC1 (stereo not drawn) [Example 13, (1,4)-4-(5-Fluoro-1H-indol-3-yl)-1-([2-(1H-indol-4-yloxy)-ethylamino]-methyl}-cyclohexanol]
Emax (5-HT1A cloned receptor): 85%

Fc1cc2c(c(OCCN[C@H]3CC[C@@H](c4c[nH]c5ccc(F)cc54)CC3)c1)OCCC2 [Example 5a, [2-(6-Fluoro-chroman-8-yloxy)-ethyl]-[(1,4-cis)-4-(5-fluoro-1H -indol-3-yl)-cyclohexyl]-amine]
5-HT1A (% @1000nM) [1]: 49%@1000nM
Ki (serotonin transporter; [3]): 13 nM

COc1cc(F)c(F)cc1OCCN[C@H]1CC[C@H](c2c[nH]c3ccc(F)cc32)CC1 [Example 11b, (1,4-trans)-[2-(4,5-Difluoro-2-methoxy-phenoxy)-ethyl]-[4-(5-fluoro-1H-indol-3-yl)-cyclohexyl]-amine]
Ki [1]: 24.9 nM
Emax (5-HT1A cloned receptor): 0%
Ki (serotonin transporter): 0.7 nM

COc1cc(F)ccc1OCCN[C@H]1CC[C@@H](c2c[nH]c3ccc(F)cc32)CC1 [Example 9a, [(1,4-cis)-4-(5-Fluoro-1H-indol-3-yl)-cyclohexyl]-[2-(4-fluoro-2-methoxy-phenoxy)-ethyl]-amine]
5-HT1A (% @10nM) [1]: 16%@10nM
Emax (5-HT1A cloned receptor): 45%
Ki (serotonin transporter; [3]): 1.76 nM

COc1cc(S(C)(=O)=O)c(F)cc1OCCN[C@H]1CC[C@H](c2c[nH]c3ccc(F)cc32)CC1 [Example 12, [(1,4-trans)-4-(5-Fluoro-1H-indol-3-yl)-cyclohexyl]-[2-(5-fluoro-4-methanesulfonyl-2-methoxy-phenoxy)-ethyl]-amine]
5-HT1A (% @10nM) [1]: 0%@10nM
Emax (5-HT1A cloned receptor): 0%
Ki (serotonin transporter): 0.47 nM

Cc1nc2c(OCCN[C@H]3CC[C@H](c4c[nH]c5ccc(F)cc54)CC3)cc(Cl)cc2[nH]1 [Example 8b, [2-(6-Chloro-2-methyl-1H-benzoimidazol-4-yloxy)-ethyl]-[(1,4-trans)-4-(5-fluoro-1H-indol-3-yl)-cyclohexyl]-amine]
Ki [1]: 18.9 nM
Ki (serotonin transporter; [3]): 0.52 nM
Emax [2]: 0%

Fc1ccc2[nH]cc([C@H]3CC[C@@H](NCCOc4cccc5c4OCCO5)CC3)c2c1 [Example 4a]
Ki [1]: 484 nM
Ki (serotonin transporter; [3]): 18 nM

N#Cc1ccc2[nH]cc([C@H]3CC[C@H](NCCOc4cc(F)cc5c4OCC5)CC3)c2c1 [Example 6b]
Ki [1]: 23.5 nM
Ki (serotonin transporter; [3]): 1.53 nM

COc1ccccc1OCCN[C@H]1CC[C@H](c2c[nH]c3ccc(F)cc32)CC1 [Example 1b, [(trans)-4-(5-Fluoro-1H-indol-3-yl)-cyclohexyl]-[2-(2-methoxy-phenoxy)-ethyl]-amine]
Ki [1]: 22.4 nM

Fc1ccc2[nH]cc([C@H]3CC[C@@H](NCCOc4cccc5[nH]ccc45)CC3)c2c1 [Example 3a]
Ki [1]: 147 nM
Ki (serotonin transporter; [3]): 26 nM

Fc1cc(OCCN[C@H]2CC[C@@H](c3c[nH]c4ccc(F)cc43)CC2)c2occc2c1 [Example 7a, [2-(5-Fluoro-benzofuran-7-yloxy)-ethyl]-[(1,4-cis)-4-(5-fluoro-1H -indol-3-yl)-cyclohexyl]-amine]
Ki [1]: 146 nM

Fc1ccc2c(c1)[nH]cc2[C@H]1CC[C@@H](NCCOc2cccc3c2OCCO3)CC1 [Example 4c]
Ki [1]: 353 nM
Ki (serotonin transporter; [3]): 6.37 nM

Cn1cc([C@H]2CC[C@@H](NCCOc3cc(F)cc4c3OCCC4)CC2)c2cc(C#N)ccc21 [Example 5c, 3-{(1,4-cis)-4-[2-(6-Fluoro-chroman-8-yloxy)-ethylamino]-cyclohexyl}-1-methyl-1H-indole-5-carbonitrile]
5-HT1A (% @1000nM) [1]: 47%@1000nM
Ki (serotonin transporter; [3]): 0.53 nM

COc1cc(F)c(F)cc1OCCN[C@H]1CC[C@@H](c2c[nH]c3ccc(F)cc32)CC1 [Example 11a, (1,4-cis)-[2-(4,5-Difluoro-2-methoxy-phenoxy)-ethyl]-[4-(5-fluoro-1H-indol-3-yl)-cyclohexyl]-amine]
5-HT1A (% @10nM) [1]: 0%@10nM
Emax (5-HT1A cloned receptor): 0%
Ki (serotonin transporter): 1.7 nM

N#Cc1ccc2[nH]cc([C@H]3CC[C@@H](NCCOc4cc(F)cc5c4OCC5)CC3)c2c1 [Example 6a]
5-HT1A (% @1000nM) [1]: 49%@1000nM
Ki (serotonin transporter; [3]): 1.07 nM

Cn1cc([C@H]2CC[C@H](NCCOc3cc(F)cc4c3OCCC4)CC2)c2cc(C#N)ccc21 [Example 5d, 3-{(1,4-cis)-4-[2-(6-Fluoro-chroman-8-yloxy)-ethylamino]-cyclohexyl}-1-methyl-1H-indole-5-carbonitrile]
Ki [1]: 24 nM
Ki (serotonin transporter; [3]): 21.4 nM

Fc1ccc2[nH]cc([C@H]3CC[C@H](NCCOc4cc(Cl)cc5[nH]cnc45)CC3)c2c1 [Example 8a, [2-(6-Chloro-1H-benzoimidazol-4-yloxy)-ethyl]-[(1,4-trans)-4-(5-fluoro-1H-indol-3-yl)-cyclohexyl]-amine]
Ki [1]: 12.7 nM
Emax (5-HT1A cloned receptor): 0%
Ki (serotonin transporter; [3]): 1.6 nM

COc1ccc(F)cc1OCCN[C@H]1CC[C@@H](c2c[nH]c3cc(F)ccc32)CC1 [Example 2a, [(1,4-cis)-4-(6-Fluoro-1H-indol-3-yl)-cyclohexyl]-[2-(5-fluoro-2-methoxy-phenoxy)-ethyl]-amine]
Ki [1]: 996 nM
Ki (serotonin transporter; [3]): 1.19 nM

COc1ccccc1OCCN[C@H]1CC[C@@H](c2c[nH]c3ccc(F)cc32)CC1 [Example 1a, [(cis)-4-(5-Fluoro-1H-indol-3-yl)-cyclohexyl]-[2-(2-methoxy-phenoxy)-ethyl]-amine]
Ki [1]: 307 nM

Fc1cc(OCCN[C@H]2CC[C@H](c3c[nH]c4ccc(F)cc43)CC2)c2occc2c1 [Example 7b, [2-(5-Fluoro-benzofuran-7-yloxy)-ethyl]-[(1,4-trans)-4-(5-fluoro-1H -indol-3-yl)-cyclohexyl]-amine]
Ki [1]: 18.8 nM

COc1cc(F)ccc1OCCN[C@H]1CC[C@H](c2c[nH]c3ccc(F)cc32)CC1 [Example 9b, [(1,4-trans)-4-(5-Fluoro-1H-indol-3-yl)-cyclohexyl]-[2-(4-fluoro-2-methoxy-phenoxy)-ethyl]-amine]
Ki [1]: 78.3 nM
Emax (5-HT1A cloned receptor): 39.5%
Ki (serotonin transporter; [3]): 3.28 nM

N#Cc1ccc2[nH]cc([C@H]3CC[C@@H](NCCOc4cc(F)cc5c4OCCC5)CC3)c2c1 [Example 5e, 3-{(1,4-cis)-4-[2-(6-Fluoro-chroman-8-yloxy)-ethylamino]-cyclohexyl}-1H-indole-5-carbonitrile]
Ki [1]: 385 nM
Ki (serotonin transporter; [3]): 2.74 nM

COc1ccccc1OCCNCC1CCC(c2c[nH]c3ccc(C#N)cc23)CC1 (stereo not drawn) [Example 10b, 3-(4-{[2-(Methoxy-phenoxy)-ethylamino]-methyl}-cyclohexyl)-1H-indole-5-carbonitrile]
5-HT1A (% @10nM) [1]: 7%@10nM
Ki (serotonin transporter; [3]): 1.53 nM
